The values below are quoted from earlier work in patent US7135196B2, “Iron compositions” (Vitra Pharmaceuticals Limited, priority 2000, dated 2006).

Molecules are shown by their SMILES.

Turning to `O=C([O-])/C=C/C(=O)[O-].[Fe+2]` [fumarate, ferrous fumarate], the solubility in water entry was “poorly and slowly soluble”.
